One may read the pIC50 as the negative decadic logarithm of the IC50, by convention in mol/L.

pIC50: −log10 of the molar value.

These results are taken from ChEMBL document CHEMBL3758147, “1,9-seco-Bicyclic Polyprenylated Acylphloroglucinols from Hypericum uralum” (J Nat Prod, 2015).

For this assay, the target named is Acetylcholinesterase (Homo sapiens, UniProt P22303). Description: Inhibition of human erythrocyte AChE using acetylthiocholine as substrate assessed as substrate hydrolysis preincubated for 20 mins followed by substrate addition measured after 30 mins by Ellman's assay. As to conditions: for pIC50: read-out: IC50; call rule not given here.
Sequence of Acetylcholinesterase (P22303 whole entry): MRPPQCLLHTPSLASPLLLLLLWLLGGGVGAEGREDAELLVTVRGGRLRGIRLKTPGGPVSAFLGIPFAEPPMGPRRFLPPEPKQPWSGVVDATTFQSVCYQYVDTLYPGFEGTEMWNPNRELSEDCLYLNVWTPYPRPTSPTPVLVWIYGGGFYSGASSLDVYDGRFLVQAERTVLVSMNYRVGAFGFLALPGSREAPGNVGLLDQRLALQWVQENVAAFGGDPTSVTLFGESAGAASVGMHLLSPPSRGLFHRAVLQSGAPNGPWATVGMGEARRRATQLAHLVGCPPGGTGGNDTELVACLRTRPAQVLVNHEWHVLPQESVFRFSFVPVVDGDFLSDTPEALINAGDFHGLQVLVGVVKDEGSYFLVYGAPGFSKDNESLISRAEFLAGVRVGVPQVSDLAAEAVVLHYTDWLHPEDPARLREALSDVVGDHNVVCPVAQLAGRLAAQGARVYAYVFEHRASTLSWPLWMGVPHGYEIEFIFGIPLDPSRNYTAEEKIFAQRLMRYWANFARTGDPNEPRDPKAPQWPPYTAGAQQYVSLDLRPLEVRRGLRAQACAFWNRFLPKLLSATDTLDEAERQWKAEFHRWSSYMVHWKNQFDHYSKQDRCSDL

With `CC(C)=CCC[C@]1(C)[C@@H](CC=C(C)C)C[C@@]2(CC=C(C)C)C(=O)O[C@@](CC=C(C)C)(C(=O)[C@H]1C(=O)C(C)C)C2=O`, the IC50 entry is recorded as “Not Active”.

In the case of `CC(C)=CCC1=C2OC(C)(C)[C@H](O)[C@H]3/C=C(/C)[C@@H](CC=C(C)C)C[C@](CC=C(C)C)(C1=O)C(=O)[C@]23C(=O)c1ccccc1`, the IC50 result is “Not Active”.

Consider `CC(C)=CC[C@H]1C[C@@]2(CC=C(C)C)C(=O)C3(CC=C(C)C)CC14C[C@@H](C=C(C)C)C(C(=O)c1ccccc1)(C3=O)C42O`, for which the IC50 result is given as “Not Active”.

Consider `CC(C)=CCC/C(C)=C/C[C@]12C[C@@H](CC=C(C)C)C(C)(C)[C@H](C(=O)C(C)C)C(=O)[C@](CC=C(C)C)(OC1=O)C2=O`, for which the IC50 result is reported as “Not Active”.

Consider `CC(C)=CC[C@H]1C[C@@]2(CC=C(C)C)C(=O)O[C@](CC=C(C)C)(C2=O)C(=O)[C@]23C(=O)c4ccccc4C(C)(C)[C@H]2CC[C@]13C`, for which the IC50 entry is on record as “Not Active”.

Consider `CC(C)=CC[C@H]1C[C@@]2(CC=C(C)C)C(=O)O[C@@](CC=C(C)C)(C(=O)[C@@H](C(=O)C(C)C)[C@]1(C)C/C=C/C(C)(C)O)C2=O`, for which the pIC50 was 5.02.

Consider `CCC(C)C(=O)[C@@H]1C(=O)[C@]2(CC=C(C)C)OC(=O)[C@](CC=C(C)C)(C[C@H](CC=C(C)C)[C@@]1(C)C/C=C/C(C)(C)OO)C2=O` (some centres not stated), for which the IC50 result is listed as “Not Active”.

As to `CCC(C)C(=O)[C@@H]1C(=O)[C@]2(CC=C(C)C)OC(=O)[C@](C/C=C(\C)CCC=C(C)C)(C[C@@H](CC=C(C)C)C1(C)C)C2=O` (some centres not stated), the IC50 entry is on record as “Not Active”.

Consider `CCC(C)C(=O)[C@@H]1C(=O)[C@]2(CC=C(C)C)OC(=O)[C@](CC=C(C)C)(C[C@H](CC=C(C)C)[C@@]1(C)C/C=C/C(C)(C)O)C2=O` (some centres not stated), for which the pIC50 was 5.15.

As for `CC(C)=CC[C@H]1C[C@@]23C[C@H]4C(C)(C)c5ccccc5C(=O)[C@]45C(=O)C(CC=C(C)C)(C[C@@]1(C/C=C/C(C)(C)O)C25O)C3=O`, the IC50 result is “Not Active”.

For the compound `CC(C)=CC[C@H]1C[C@@]2(CC=C(C)C)C(=O)O[C@@](CC=C(C)C)(C(=O)[C@@H](C(=O)C(C)C)[C@]1(C)C/C=C/C(C)(C)OO)C2=O`, the IC50 entry is recorded as “Not Active”.

For the compound `CC(C)=CCC[C@]1(C)[C@@H](CC=C(C)C)C[C@H](CC=C(C)C)C(=O)[C@](O)(CC=C(C)C)C(=O)[C@H]1C(=O)C(C)C`, the IC50 result is recorded as “Not Active”.
